Measurements: PubChem BioAssay AID248 (DTP/NCI, 2004)
Toxic doses and inconclusive results are not listed. Cut-off read from the data, not from the text of the source: active = T/C of 150% or more; inactive = T/C below 125%.

System: L1210 leukemia ip in BDF1 mice, survival T/C
Test: NCI In Vivo Anticancer Drug Screen. Data for tumor model L1210 Leukemia (intraperitoneal) in B6D2F1 (BDF1) mice
Settings: endpoint: mean survival time, higher = longer survival
Procedure, shortened: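 Read-out is survival time, reported as the treated-group measurement over the vehicle-control measurement.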

[1] = dose: 100.0 mg/kg/injection, schedule: Q04DX003 (ip), vehicle: Klucel (hydroxypropylcellulose) (HPC)
[2] = dose: 200.0 mg/kg/injection, schedule: Q04DX003 (ip), vehicle: Klucel (hydroxypropylcellulose) (HPC)
[3] = dose: 400.0 mg/kg/injection, schedule: Q04DX003 (ip), vehicle: Klucel (hydroxypropylcellulose) (HPC)
[4] = dose: 100.0 mg/kg/injection, schedule: Q01DX001 (ip), vehicle: saline
[5] = dose: 200.0 mg/kg/injection, schedule: Q01DX001 (ip), vehicle: saline
[6] = dose: 400.0 mg/kg/injection, schedule: Q01DX001 (ip), vehicle: saline
[7] = dose: 100.0 mg/kg/injection, schedule: Q01DX009 (ip), vehicle: saline with Tween-80
[8] = dose: 200.0 mg/kg/injection, schedule: Q01DX009 (ip), vehicle: saline with Tween-80
[9] = dose: 100.0 mg/kg/injection, schedule: Q01DX009 (ip), vehicle: Klucel (hydroxypropylcellulose) (HPC)
[10] = dose: 200.0 mg/kg/injection, schedule: Q01DX009 (ip), vehicle: Klucel (hydroxypropylcellulose) (HPC)
[11] = dose: 400.0 mg/kg/injection, schedule: Q01DX009 (ip), vehicle: Klucel (hydroxypropylcellulose) (HPC)
[12] = dose: 100.0 mg/kg/injection, schedule: Q04DX003 (ip), vehicle: saline with Tween-80
[13] = dose: 200.0 mg/kg/injection, schedule: Q04DX003 (ip), vehicle: saline with Tween-80
[14] = dose: 400.0 mg/kg/injection, schedule: Q04DX003 (ip), vehicle: saline with Tween-80
[15] = dose: 100.0 mg/kg/injection, schedule: Q01DX009 (ip), vehicle: saline
[16] = dose: 200.0 mg/kg/injection, schedule: Q01DX009 (ip), vehicle: saline

Measured: T/C

Cc1ccc(NC(=O)OCCOc2ccc(Br)cc2)cc1[N+](=O)[O-]
inactive: [1] 94 % of control | [2] 90 % of control | [3] 94 % of control

O=[N+]([O-])c1ccc(N/N=C2\CCCc3c2ccc2ccccc32)c([N+](=O)[O-])c1
inactive: [4] 97 % of control | [5] 92 % of control | [6] 103 % of control

O=C(/C=N/O)Nc1ccccc1
inactive: [7] 101 % of control | [8] 101 % of control | dose: 400.0 mg/kg/injection, schedule: Q01DX009 (ip), vehicle: saline with Tween-80 98 % of control

Cc1ccc(NC(=O)C(F)(F)F)cc1F
inactive: dose: 50.0 mg/kg/injection, schedule: Q01DX009 (ip), vehicle: Klucel (hydroxypropylcellulose) (HPC) 93 % of control | [9] 104 % of control | [10] 97 % of control

COc1ccc(OC)c(NC(=O)NNC(=O)CNC(=O)Nc2cccc(C)n2)c1
inactive: dose: 25.0 mg/kg/injection, schedule: Q01DX009 (ip), vehicle: saline with Tween-80 94 % of control | dose: 50.0 mg/kg/injection, schedule: Q01DX009 (ip), vehicle: saline with Tween-80 94 % of control | [7] 90 % of control

COc1ccc(OC)c(CC(CC(=O)O)(C(=O)O)C(=O)O)c1
inactive: [1] 91 % of control | [2] 96 % of control | [3] 96 % of control

CCN1C(=O)/C(=C/c2ccncc2)SC1=S
inactive: dose: 50.0 mg/kg/injection, schedule: Q01DX Z (ip), vehicle: carboxymethylcellulose (CMC) 96 % of control | dose: 100.0 mg/kg/injection, schedule: Q01DX Z (ip), vehicle: carboxymethylcellulose (CMC) 92 % of control | dose: 200.0 mg/kg/injection, schedule: Q01DX Z (ip), vehicle: carboxymethylcellulose (CMC) 94 % of control | dose: 400.0 mg/kg/injection, schedule: Q01DX Z (ip), vehicle: carboxymethylcellulose (CMC) 91 % of control

O=P1(c2ccccc2)CCc2[nH]c3ccc(Cl)cc3c2C1 (stereo not given)
inactive: [1] 100 % of control | [2] 107 % of control | [3] 112 % of control

CCc1ccccc1NC(=O)NC(C)C
inactive: [9] 98 % of control | [1] 90 % of control | [10] 91 % of control | [2] 97 % of control | [11] 95 % of control | [3] 92 % of control

Cc1ccc([N+](=O)[O-])cc1NC(=O)Sc1ccc(C(C)(C)C)cc1
inactive: [1] 98 % of control | [2] 98 % of control | [3] 98 % of control

CN(C)CCCN=C(N)CCl
inactive: dose: 12.5 mg/kg/injection, schedule: Q04DX002 (ip), vehicle: saline 101 % of control | dose: 25.0 mg/kg/injection, schedule: Q04DX002 (ip), vehicle: saline 108 % of control | dose: 50.0 mg/kg/injection, schedule: Q04DX002 (ip), vehicle: saline 87 % of control | dose: 100.0 mg/kg/injection, schedule: Q04DX002 (ip), vehicle: saline 97 % of control

CC1(C)C(=O)CC[C@@]2(C)C1=CC[C@@H]1[C@@H]2CC[C@@]2(C)[C@H]1CC[C@]2(C)O
inactive: dose: 50.0 mg/kg/injection, schedule: Q01DX Z (sc), vehicle: steriod suspending solution 91 % of control | dose: 250.0 mg/kg/injection, schedule: Q01DX Z (sc), vehicle: steriod suspending solution 96 % of control | dose: 500.0 mg/kg/injection, schedule: Q01DX Z (sc), vehicle: steriod suspending solution 101 % of control

CS(=O)(=O)Nc1ccccc1N
inactive: [9] 95 % of control | [10] 93 % of control

Nc1cc(C(=O)O)ccc1Cl
inactive: [4] 105 % of control | [5] 95 % of control | [6] 95 % of control

CCOc1cccc(OC(C)=O)c1
inactive: dose: 75.0 mg/kg/injection, schedule: Q01DX001 (ip), vehicle: carboxymethylcellulose (CMC) 103 % of control | dose: 150.0 mg/kg/injection, schedule: Q01DX001 (ip), vehicle: carboxymethylcellulose (CMC) 90 % of control

CC(=O)OCC(OC(C)=O)C(OC(C)=O)C(OC(C)=O)C(COC(C)=O)OC(C)=O (stereo not given)
inactive: [12] 97 % of control | [13] 93 % of control | [14] 98 % of control

Cc1ccc(C(=O)C(Br)C(Br)c2ccccc2)cc1 (stereo not given)
inactive: [9] 89 % of control | [7] 90 % of control | [12] 92 % of control | [10] 89 % of control | [8] 89 % of control | [13] 89 % of control | [11] 96 % of control | [14] 95 % of control

O=C1OCCC12CCCCC21OCCO1 (stereo not given)
inactive: [4] 101 % of control | [5] 104 % of control | [6] 98 % of control

O=C(Nc1ccc(Cl)c(Cl)c1)Oc1ccc(-c2ccccc2)cc1
inactive: [9] 93 % of control | [1] 87 % of control | [10] 100 % of control | [2] 92 % of control | [11] 90 % of control | [3] 88 % of control

CCCCOB(OCCCC)c1cccc(C(F)(F)F)c1
inactive: [15] 100 % of control | [16] 89 % of control

[O-]c1on[n+](-c2ccccc2)c1-c1ccccc1
inactive: dose: 75.0 mg/kg/injection, schedule: Q01DX009 (ip), vehicle: Klucel (hydroxypropylcellulose) (HPC) 93 % of control | dose: 75.0 mg/kg/injection, schedule: Q04DX003 (ip), vehicle: Klucel (hydroxypropylcellulose) (HPC) 109 % of control | dose: 150.0 mg/kg/injection, schedule: Q01DX009 (ip), vehicle: Klucel (hydroxypropylcellulose) (HPC) 97 % of control | dose: 150.0 mg/kg/injection, schedule: Q04DX003 (ip), vehicle: Klucel (hydroxypropylcellulose) (HPC) 105 % of control | dose: 300.0 mg/kg/injection, schedule: Q01DX009 (ip), vehicle: Klucel (hydroxypropylcellulose) (HPC) 95 % of control | dose: 300.0 mg/kg/injection, schedule: Q04DX003 (ip), vehicle: Klucel (hydroxypropylcellulose) (HPC) 107 % of control

CCC1(CC)c2ccccc2C(CC)(CC)[N+]1(C)C
inactive: dose: 100.0 mg/kg/injection, schedule: Q01DX001 (ip), vehicle: carboxymethylcellulose (CMC) 102 % of control | dose: 200.0 mg/kg/injection, schedule: Q01DX001 (ip), vehicle: carboxymethylcellulose (CMC) 98 % of control

CC1(C)C=CC(=NO)C=C1
inactive: [9] 96 % of control | [10] 97 % of control

COc1cc(N2CCOCC2)ccc1[N+](=O)[O-]
inactive: dose: 50.0 mg/kg/injection, schedule: Q01DX009 (ip), vehicle: saline 105 % of control | [15] 103 % of control | dose: 100.0 mg/kg/injection, schedule: Q04DX003 (ip), vehicle: saline 102 % of control | [16] 105 % of control | dose: 200.0 mg/kg/injection, schedule: Q04DX003 (ip), vehicle: saline 103 % of control
